From US9241928B2, “Antimicrobial compounds” (The General Hospital Corporation, priority 2009, dated 2016)
≈ marks a conversion by molar mass, not a printed value.

Key:
[1] = tested on: immune response genes; test: qRT-PCR of immune response genes, PMK-1 dependence (overall); assay type: in vivo, Caenorhabditis elegans; details: 20 μg/mL, N2 or pmk-1 mutant animals
Excerpt: (§1) Caenorhabditis elegans strains were maintained on Escherichia coli OP50 as described in Brenner, Genetics, 1974, 77:71-94. Wildtype N2 nematodes carrying integrated transgenes acIs219 (AU78), acIs101(AY101), agIs17(AU133), or agIs26 (AU185) (see (1) Shivers, et al., PLoS. Genet. 2010, 6: e1000892, (2) Bolz et al., J. Biol. Chem. 2010, 285:10832-40, (3) Estes et al., Proc. Natl. Acad. Sci., 2010, 107:2153-8, and (4) Irazoqui et al., Proc. Natl. Acad. Sci., 2008, 105:17469-74) were used to assay the immunomodulatory activity of candidate compounds. For qRT-PCR experiments, RNA was extracted from synchronized young adult nematodes exposed to a candidate compound or DMSO (as a control) using TRI Reagent and reverse transcribed using the Retroscript kit (Ambion). This cDNA was then subjected to qRT-PCR analysis using SYBR green detection on a CFX1000 machine (Bio-Rad, http://www.bio-rad.com). Primers for qRT-PCR were obtained from published sequences (see Irazoqui et al., Proc. Natl. Acad. Sci., 2008, 105:17469-74 and Troemel et al., PLoS Genet. 2006, 2:e183). […] Fold change was calculated using the Pfaffl method (see Pfaffl et al., Nucleic Acids Res., 2001, 29:e45).
By using the assay described above, the inventors identified five compounds (i.e., Compounds 11, 18, 20, 25, and 26) that robustly and reproducibly activated the immune GFP reporters (see FIG. 5 and Table 3) or activated selected immune response genes as determined by quantitative RT-PCR analysis (see Table 4). For the latter experiments, RNA was isolated from wild-type C. elegans N2 or pmk-1 mutant animals exposed to the candidate immunomodulatory compounds at 20 μg/mL and from animals exposed to DMSO. The inventors tested several immune response genes in compound-exposed animals that are known to be regulated by PMK-1, the p38 Mitogen Acitvated Protein kinase homolog, an evolutionary-conserved, central regulator of nematode immunity. The inventors also used qRT-PCR to measure the activation of several immune response genes that are known to be activated independently of PMK-1. […]

[2] = tested on: F53E10.4; test: qRT-PCR of immune response gene expression; assay type: in vivo, Caenorhabditis elegans; details: 20 μg/mL versus DMSO
Excerpt: as §1
(§2) By using the assay described above, the inventors identified five compounds (i.e., Compounds 11, 18, 20, 25, and 26) that robustly and reproducibly activated the immune GFP reporters (see FIG. 5 and Table 3) or activated selected immune response genes as determined by quantitative RT-PCR analysis (see Table 4). For the latter experiments, RNA was isolated from wild-type C. elegans N2 or pmk-1 mutant animals exposed to the candidate immunomodulatory compounds at 20 μg/mL and from animals exposed to DMSO. The inventors tested several immune response genes in compound-exposed animals that are known to be regulated by PMK-1, the p38 Mitogen Acitvated Protein kinase homolog, an evolutionary-conserved, central regulator of nematode immunity. The inventors also used qRT-PCR to measure the activation of several immune response genes that are known to be activated independently of PMK-1. […] Thus, without wishing to be bound by theory, it is believed that a subset of the compounds identified in the screen for novel anti-infective compounds directly stimulate the immune response of the nematode and that these compounds act both by directly stimulating the PMK-1 pathway and by unidentified parallel immune response pathways.

[3] = tested on: C49G7.5; test: qRT-PCR of immune response gene expression; assay type: in vivo, Caenorhabditis elegans; details: 20 μg/mL versus DMSO
Excerpt: as §1, §2

[4] = tested on: C17H12.8; test: qRT-PCR of immune response gene expression; assay type: in vivo, Caenorhabditis elegans; details: 20 μg/mL versus DMSO
Excerpt: as §1, §2

[5] = tested on: T24B8.5; test: qRT-PCR of immune response gene expression; assay type: in vivo, Caenorhabditis elegans; details: 20 μg/mL versus DMSO
Excerpt: as §1, §2

[6] = tested on: irg-1; test: qRT-PCR of immune response gene expression; assay type: in vivo, Caenorhabditis elegans; details: 20 μg/mL versus DMSO
Excerpt: as §1, §2

[7] = tested on: F35E12.5; test: qRT-PCR of immune response gene expression; assay type: in vivo, Caenorhabditis elegans; details: 20 μg/mL versus DMSO
Excerpt: as §1, §2

[8] = tested on: F56D6.2; test: qRT-PCR of immune response gene expression; assay type: in vivo, Caenorhabditis elegans; details: 20 μg/mL versus DMSO
Excerpt: as §1, §2

[9] = tested on: T24B8.5::GFP; test: Immune GFP reporter induction, transgene acIs219; assay type: in vivo, Caenorhabditis elegans; details: compound-exposed versus DMSO-exposed animals, visual
Excerpt: as §1
Without wishing to be bound by theory, it was hypothesized that a subset of these compounds cured nematode infection by directly activating the innate immune response of the animal. To test this hypothesis, a multi-faceted approach was used. First, the inventors studied four C. elegans strains in which the promoter of the nematode immune response genes T24B8.5, F35E12.5, irg-1 and clec-60 were individually fused to GFP, generating transgenes acIs219 (AU78), acIs101(AY101), agIs17(AU133), or agIs26 (AU185), respectively, thereby allowing a visual readout of gene activity in each strain. Using these reporter strains, the ability of 33 compounds previously shown to have anti-Enterococcal killing activity in the C. elegans infection assay (24 of which have been described above) were tested for their ability to modulate the nematode immune response.

[10] = tested on: a Staphylococcus aureus strain; test: Bacterial killing, Staphylococcus aureus strain (data not shown); assay type: cell-based
[11] = tested on: a different Enterococcus faecalis strain; test: Bacterial killing, different Enterococcus faecalis strain (data not shown); assay type: cell-based
[12] = tested on: E. faecalis strain MMH594; test: Antimicrobial (bacterial killing) assay; assay type: cell-based, Enterococcus faecalis; details: mM concentrations, 1 to 30 minutes, room temperature
Protocol: Compounds 6, 7, 15 were purchased from TimTec and ChemDiv, dissolved in DMSO at a concentration of 5 or 10 mg/ml, and further diluted in DMSO as indicated. E. faecalis strain MMH594 was grown overnight with aeration at 37° C. in Bacto brain heart infusion (BHI) broth (Becton Dickinson), transferred to ice, and washed in phosphate-buffered saline (PBS; pH 7.2). Equal volumes of a dissolved compound and bacteria were mixed, incubated at room temperature for 1 to 30 minutes, ten-fold serially diluted in PBS, and plated in […] droplets on BHI agar plates. Plates were incubated at room temperature until colonies were visible.

[13] = tested on: Drosophila infection; test: Drosophila infection-survival bioassay (data not shown); assay type: in vivo
[14] = tested on: E. faecalis strain V583; test: Biofilm formation assay (crystal violet); assay type: cell-based, Enterococcus faecalis; details: 10 μg/ml, 24 hours
Protocol: To test the efficacy of candidate compounds on biofilm formation, a dilute bacterial culture of Enterococcus faecalis was incubated with candidate compounds in polystyrene plates and the level of biofilm formation was quantified by measuring the amount of crystal violet absorbed by the biofilm mass attached to plastic. First, E. faecalis strain V583 was grown at 37° C. for 16 hours in Tryptic Soy Broth (TSB) with 1% glucose. The bacterial culture was diluted to OD600=0.025 in fresh medium and was dispensed into 96-well polystyrene plates. Candidate compounds dissolved in dimethylsulfoxide (DMSO) were added to the wells to provide a final concentration of 10 μg/ml and the plates were incubated statically at 37° C. for 24 hours. After incubation, the medium was aspirated, the planktonic cells were removed by washing with phosphate buffered saline (PBS), and the plates were inverted and dried for 1 hour at room temperature. The biofilm mass was stained with 0.2% crystal violet for 15 minutes and extraneous crystal violet was washed away with PBS. The crystal violet absorbed by the biofilm was extracted with an 80% ethanol, 20% acetone mixture and the absorbance at 595 nm (OD595) was read with a spectrophotometer.

[15] = tested on: E. faecalis strain V583; test: Biofilm maintenance assay (crystal violet); assay type: cell-based, Enterococcus faecalis; details: 10 μg/ml added to biofilm established for 24 hours
Protocol: To test for the efficacy of candidate compounds on biofilm maintenance, a bacterial culture of OD600=0.025 was grown in 96-well polystyrene plates for 24 hours as described above to establish biofilm mass prior to the addition of candidate compounds dissolved in DMSO at a final concentration of 10 μg/ml. The plates were then processed as described above.

[16] = tested on: C. elegans infected with E. faecalis; test: Dose response time courses in the C. elegans-E. faecalis infection assay; assay type: in vivo, Caenorhabditis elegans; details: Effective Concentration: survival significantly different from mock-treated, p-value <0.05, logrank; read-out: EC
Protocol: glp-4(bn2); sek-1 (km4) mutant worms were grown to gravid adult stage. 1,000 worms at the L1 stage were grown for 5.2 days at 15° C. on 9-cm plates of SK agar media spread with a lawn of E. coli strain HB101. Embryos from the gravid adults were isolated by a previously described hypochlorite method (see Tan et al., (1999) Proc. Natl. Acad. Sci. USA 96, 715-720) and hatched at 15° C. for 2 days. Approximately 4,500 of the Ll hatchlings were grown on each 9-cm plate of SK-NS agar (SK media with 62.5 U/ml nystatin and 100 μg/ml streptomycin) and with lawns of E. coli HB101. These worms were grown at 25° C. for 52 hours to generate sterile, young adults.
A culture of E. faecalis MMH594 was grown in BHI broth (BD Difco) with 80 μg/ml kanamycin at 37° C. for 6 hours and 100 μl of the culture were spread onto each 9-cm plate of BHI agar containing 80 μg/mlkanamycin. Lawns of E. faecalis were grown at 25° C. for 16 hours and transferred to 15° C. for 8 hours.
Sterile adult worms were resuspended in M9 buffer and washed twice with M9 in a 1:10 ratio to remove E. coli. 8,000 worms were pipetted onto each lawn of E. faecalis and incubated 15 hours at 15° C. After infection, the worms were resuspended in M9 and used as described below. 384-well plates (Corning #3712) were filled with 55 μl media (see below) using a Thermo Scientific MULTIDROP Combi reagent dispenser. 0.3 μl of a candidate compound in DSMO were pin transferred into each well using a CyBio CYBI-Well vario transfer system. The plates were agitated using an Eppendorf MIXMATE at 1,800 rpm for 15 seconds. Using the Union Biometrica Complex Object Parametric Analyzer and Sorter (COPAS) BIOSORT worm sorter according to manufacturer's protocols, 15 of the infected worms were transferred to each well in a total volume of approximately 15 μl. Total volume per well is 70 μl/well with a final composition of the media being 20% BHI, […], 80 μg/ml kanamycin, 62.5 U/ml nystatin, 1% DMSO, and 19% sheath solution (Union Biometrica Part #300-5101-000). Plates were vortexed for 5 seconds, centrifuged at 1000×g for 10 seconds, and sealed with gas permeable membranes (BREATHEASY Diversified). Plates were placed in a single layer on the top shelves in a 26.3° C. incubator at 85% relative humidity (RH) and incubated without agitation for 5 days.
The dose dependence of certain antimicrobial compounds identified by the assay above were studied. These compounds were purchased in a larger amount from commercial sources. For each of these compounds, an infection assay was performed essentially as described above at different concentrations except that SYTOX staining was not used. Instead, bright-field images of the wells were acquired at daily time points and scored manually for worm survival by analyzing worm body positioning. […] All compounds used in this assays were confirmed for their identity and purity by liquid chromatography/mass spectrometry.

[17] = tested on: E. faecalis MMH594; test: MIC assay, E. faecalis in vitro; assay type: cell-based; details: Enterococcus faecalis; E. faecalis MMH594 in 20% BHI, 80% M9, 37° C., 15 hours, scored by eye
Protocol: A culture of E. faecalis MMH594 was grown overnight in BHI broth to stationary phase at 37° C. with aeration. The culture was diluted to an approximate density of […] in worm infection media (20% BHI, 80% M9 buffer). 12.5 μl of the bacterial culture dilution was inoculated into 384-well plates containing 12.5 μl of 2-fold serial dilutions of a test compound. […] Plates were incubated at 37° C. for 15 hours and scored by eye for bacterial growth.

SMILES: CC(C)(c1ccc(NS(=O)(=O)C(F)(F)F)cc1)c1ccc(C(C)(C)c2cccc(NS(=O)(=O)C(F)(F)F)c2)cc1 [Compound 18]
- PMK-1 dependence of immune response gene activation [1]: activated at least one immune response gene in the nematode in a manner independent of PMK-1
- F53E10.4 expression, average fold-change ([2]; genotype N2): 0.2 fold-change
- F53E10.4 expression, average fold-change ([2]; genotype pmk-1(km25)): 0.3 fold-change
- C49G7.5 expression, average fold-change ([3]; genotype N2): 11.1 fold-change
- C49G7.5 expression, average fold-change ([3]; genotype pmk-1(km25)): 57.4 fold-change
- C17H12.8 expression, average fold-change ([4]; genotype N2): 10.2 fold-change
- C17H12.8 expression, average fold-change ([4]; genotype pmk-1(km25)): 0.3 fold-change
- T24B8.5 expression, average fold-change ([5]; genotype N2): 2.6 fold-change
- T24B8.5 expression, average fold-change ([5]; genotype pmk-1(km25)): 0.3 fold-change
- irg-1 expression, average fold-change ([6]; genotype N2): 1.5 fold-change
- irg-1 expression, average fold-change ([6]; genotype pmk-1(km25)): 4.4 fold-change
- F35E12.5 expression, average fold-change ([7]; genotype N2): 10.6 fold-change
- F35E12.5 expression, average fold-change ([7]; genotype pmk-1(km25)): 0.4 fold-change
- F56D6.2 expression, average fold-change ([8]; genotype N2): 2.2 fold-change
- F56D6.2 expression, average fold-change ([8]; genotype pmk-1(km25)): 1.0 fold-change
- immune reporter induction T24B8.5::GFP [9]: +

SMILES: O=C(O)CSCC(=O)N1CCn2c3c(c4cc(C5CCCCC5)ccc42)CCCC31 (stereo not shown) [Compound 15]
- killing of a Staphylococcus aureus strain [10]: killed
- killing of a different Enterococcus faecalis strain [11]: killed
- bactericidal activity (FIGS. 7A and 7B) [12]: rapid killing of bacteria
- bactericidal activity in Drosophila infection-survival bioassay [13]: showed bactericidal activity

SMILES: O=C(O)C1CC(=O)N(CCC23CC4CC(CC(C4)C2)C3)/C(=N\c2ccc(Cl)cc2)S1 (stereo not shown) [Compound 6]
- killing of a Staphylococcus aureus strain [10]: killed
- killing of a different Enterococcus faecalis strain [11]: killed
- bactericidal activity (FIGS. 7A and 7B) [12]: rapid killing of bacteria
- biofilm formation (OD595, FIG. 3A) [14]: prevented E. faecalis biofilm formation
- biofilm maintenance (OD595, FIG. 3B) [15]: disrupted biofilm once it was formed
- minimal effective concentration [16]: 0.39 µg/mL
- bactericidal activity in Drosophila infection-survival bioassay [13]: showed bactericidal activity
- MIC [17]: 6.25 µg/mL (≈ 14 µM)
